The values below come from paper PMC9031298, “Enhanced In Vitro Antiviral Activity of Hydroxychloroquine Ionic Liquids against SARS-CoV-2” (Pharmaceutics, 2022).

The subject of data set [1] is Vero E6 cells.
Data set [2] in a line: Water solubility by stepwise addition of water until visual dissolution. The following applies: double-distilled water, 37 °C; for solubility: water, thermodynamic from solid; for Water Solubility: visual inspection.
In data set [3] the test system is SARS-CoV-2. Nature of the data set: microbe, parasite or virus in culture. The class given is cell-based. The following applies: for EC50 / EC90: TCID50 assay; for EC50: three experiments, read-out: EC50, inhibition of production of infectious progeny viruses; for EC90: read-out: EC90, inhibition of production of infectious progeny viruses.
The subject of data set [4] is Vero E6 cells. Nature of the data set: Cell viability assay (CellTiter-Glo), cytotoxicity. The following applies: non-infected Vero E6 cells, 72 h, mean of three experiments.
Data set [5] deals with SARS-CoV-2. Put plainly: microbe, parasite or virus in culture. The class given is cell-based. The following applies: for EC50 / EC90: qRT-PCR; for EC50: four experiments, read-out: EC50, inhibition of vRNA transcription; for EC90: read-out: EC90, inhibition of vRNA transcription; for inhibition of vRNA transcription: at 16.7 μM, 48 hpi. Background: Quantitative PCR measures a nucleic acid by following its amplification.

The subject of data set [6] is SARS-CoV-2. The following applies: for inhibition of CPE: at 10 μM, Vero E6, 72 hpi; for EC50: read-out: EC50, inhibition of virus-induced CPE; for EC90: read-out: EC90, inhibition of virus-induced CPE.
Data set [7] is described as follows: Octanol–water partition coefficient (Kow, Log P) by UV–Vis. To be noted: logarithm of Kow, ca. 1 mg/mL, triplicate.
A short description of data set [8]: Critical micelle concentration by ionic conductivity. The class given is physicochemical. The following applies: 20 °C, water. As to the method:
The critical micelle concentrations of the HCQ-ILs with surfactant-like anions were calculated using ionic conductivity measurements. A Crison Basic 30+ Radiometer Analytical conductivity meter was used to measure the ionic conductivities (μS/cm) of surfactant solutions in a glass cell at 20 °C containing a magnetic stirrer. For this method, a known amount of Milli-Q water was placed in a thermostated glass cell and the surfactant solution of known concentration was progressively added using a micropipette under constant stirring. Each conductivity value was measured at least three times.
The ability to form micelles of the lipophilic HCQ-ILs [DocSO3] (5) and [C12SO4] (8) was studied by ionic conductivity measurements. The inherent ability of these HCQ-ILs to self-aggregate into micelles can render adequate drug delivery properties. […] The critical micelle concentration (cmc) values, calculated by resolving both equations, are given in Table 3, alongside the cmc values for the starting halide salts (Na[DocSO3] and [C12SO4]).

For data set [9] the following is noted: cited from earlier work.
Data set [10] can be described thus: Cell viability assay (CellTiter-Glo), cytotoxicity. To be noted: African green monkey, Vero E6 cells (non-infected), CC50, non-infected Vero E6 cells, mean of three experiments. (In general: ATP-based viability assays read luminescence as a measure of living cells.)
For data set [11], the system named is SARS-CoV-2. Put plainly: microbe, parasite or virus in culture. The following applies: Severe acute respiratory syndrome coronavirus 2, Vero C1008, read-out: EC90, inhibition of virus-induced CPE, Vero E6 cells, 100 TCID50, 72 hpi.
The mark [12] stands for this setting: Vero E6 cells, 100 TCID50, 72 hpi.
The mark [13] stands for this setting: Severe acute respiratory syndrome coronavirus 2, Vero C1008, Vero E6, 48 hpi.

Values joined by “and” are separate entries in the source; they are usually repeats but may differ in a detail not shown here. Equal entries are not always repeated. Structures can show the parent of a compound that is named as a salt. Where two headings read alike, the source gives them in different places.

As for `CC1(C)C2CC[C@@]1(CS(=O)(=O)[O-])C(=O)C2.[Na+]` [6a], the CC50 – broadly, the concentration that lowers cell viability or growth by half – in data set [1] came out at 142 µM.

`CCN(CCO)CCCC(C)Nc1ccnc2cc(Cl)ccc12.CS(=O)(=O)O.CS(=O)(=O)O` (centres unmarked) [compound 3, N^4-(7-chloroquinolin-4-yl)-N^1-ethyl-N^1-(2-hydroxyethyl)pentane-1,4-diaminium bis(methanesulfonate)]: the solubility (in general, how much of the substance goes into solution per volume) in data set [2] came to 1800 mg/mL. Further, the EC50 (usually the midpoint of the concentration-response curve) is 21.8 µM in data set [3] (Vero E6, 48 hpi); 17 µM in [5] (Vero E6, 48 hpi); 8.1 µM and 8.14 µM in data set [6] (setting [12]). Further, the 90% effect concentration (EC90) (in general, the point of the concentration-response curve where the effect stands at 90%) is 24.4 µM in data set [3] (Vero E6, 48 hpi); 23.4 µM in data set [5] (Vero E6, 48 hpi); greater than 25 µM in [6] (setting [12]). Besides, the cytotoxic concentration (CC50) in data set [4] stood at 219 µM. The “inhibition of vRNA transcription” value in data set [5] was 48.5%. Also, the “inhibition of CPE” value in data set [6] was 70.5%. Further, in [7], the Log P (usually a log measure of how a compound divides between an organic and an aqueous phase) is listed as −0.22.

`Cc1ccc(S(=O)(=O)[O-])cc1.[Na+]` [7a] returned a cytotoxic concentration (CC50) in [1] greater than 400 µM.

In [2], `CCN(CCO)CCCC(C)Nc1ccnc2cc(Cl)ccc12.Cc1ccc(S(=O)(=O)O)cc1.Cc1ccc(S(=O)(=O)O)cc1` (centres unmarked) [compound 7, N^4-(7-chloroquinolin-4-yl)-N^1-ethyl-N^1-(2-hydroxyethyl)pentane-1,4-diaminium bis(4-methylbenzenesulfonate)] returned a solubility of 1400 mg/mL. Moreover, in data set [4], the CC50 stood at 207 µM. In addition, in [6] (setting [12]), the EC50 was 15 µM and the 90% effect concentration (EC90) amounted to 21.1 µM. In addition, the “Log P” value in data set [7] was −1.12.

`CCN(CCO)CCC[C@H](C)Nc1ccnc2cc(Cl)ccc12` [compound 6] showed a CC50 in data set [4] of 73.2 µM. In addition, the EC90 in [6] is greater than 25 µM.

Molecule `CS(=O)(=O)[O-].[K+]` [3a, potassium methanesulfonate] gave a CC50 in [1] greater than 400 µM.

Consider `CCN(CCO)CCCC(C)Nc1ccnc2cc(Cl)ccc12.O=C(O)[C@@H](O)[C@H](O)[C@@H](O)[C@@H](O)CO.O=C(O)[C@@H](O)[C@H](O)[C@@H](O)[C@@H](O)CO` [compound 9, N^4-(7-chloroquinolin-4-yl)-N^1-ethyl-N^1-(2-hydroxyethyl)pentane-1,4-diaminium bis((2S,3R,4S,5S)-2,3,4,5,6-pentahydroxyhexanoate)], for which, in data set [2], the “Water Solubility” value stood at 1230 mg/mL. Also, the EC50 was found to be 16.9 µM in data set [3] (Vero E6, 48 hpi); 16.3 µM in data set [5] (Vero E6, 48 hpi); 8.5 µM in [6]. The EC90 in data set [3] (Vero E6, 48 hpi) is 22.5 µM; in data set [5] (Vero E6, 48 hpi), 23.1 µM; in data set [6], greater than 25 µM. In addition, the “inhibition of production of infectious progeny” value in data set [3] (at 16.7 μM, 48 hpi) worked out at 56.5%. The same molecule showed a CC50 in data set [4] of 196 µM. Further, the “inhibition of vRNA transcription” value in [5] was determined as 55.8%. Further, the “Log P” value in data set [7] is −1.39.

For the molecule `CCCCCCS(=O)(=O)O` [4a], in [1], the CC50 is greater than 400 µM.

Consider `CCCCC(CC)COC(=O)CC(C(=O)OCC(CC)CCCC)S(=O)(=O)[O-].[Na+]` (centres unmarked) [5a], for which the cmc in data set [8] came out at 1540 µM. For the same molecule, in data set [9], the “Reference cmc (25 °C)” value is 5.0 × 10^−3 [71] M.

`O=C([O-])[C@H](O)[C@@H](O)[C@H](O)[C@H](O)CO.[Na+]` [9a]: in data set [1], the CC50 was greater than 400 µM.

Take `CCN(CCO)CCCC(C)Nc1ccnc2cc(Cl)ccc12` (centres unmarked) [compound 1, hydroxychloroquine sulfate, reference compound]: the figures for the EC50 in data set [3] (setting [13]), in [5] (setting [13]) and in data set [6] (setting [12]) were 21.7 µM, 18.6 µM and 16.5 µM, respectively. The 90% effect concentration (EC90) turned out to be 24.3 µM in data set [3] (setting [13]), 25.1 µM in data set [5] (setting [13]) and 23 µM in [11]. In addition, the half-maximal cytotoxic concentration (CC50) at 72 h in [10] was determined as 214 µM. Further, in data set [5], the “inhibition of vRNA transcription” value turned out to be 34.0%. Besides, the “inhibition of CPE” value in data set [6] is on record as “lower than 20%”. The log partition coefficient (Log P) in [7] is −2.25.

For the molecule `CCCCCCCCCCCCS(=O)(=O)O.CCCCCCCCCCCCS(=O)(=O)O.CCN(CCO)CCCC(C)Nc1ccnc2cc(Cl)ccc12` (centres unmarked) [compound 8, N^4-(7-chloroquinolin-4-yl)-N^1-ethyl-N^1-(2-hydroxyethyl)pentane-1,4-diaminium bis(dodecane-1-sulfonate)], the “Water Solubility” value in data set [2] is on record as less than 0.5 mg/mL. In [8], this molecule displayed a cmc of 4.83 µM. In data set [6], the 50% effective concentration (EC50) turned out to be 15.8 µM and the concentration for an effect of 90% (EC90) stood at 23.8 µM. For the same molecule, the “Log P” value in data set [7] was determined as 1.01.

Consider `CCCCC(CC)COC(=O)CC(C(=O)OCC(CC)CCCC)S(=O)(=O)O.CCCCC(CC)COC(=O)CC(C(=O)OCC(CC)CCCC)S(=O)(=O)O.CCN(CCO)CCCC(C)Nc1ccnc2cc(Cl)ccc12` (centres unmarked) [compound 5, N^4-(7-chloroquinolin-4-yl)-N^1-ethyl-N^1-(2-hydroxyethyl)pentane-1,4-diaminium bis(1,4-bis((2-ethylhexyl)oxy)-1,4-dioxobutane-2-sulfonate)], for which the “Water Solubility” value in data set [2] is given as less than 0.5 mg/mL. This molecule also came in with a cmc in data set [8] of 1.79 µM. This molecule showed a half-maximal cytotoxic concentration (CC50) in [4] of 69.8 µM. In data set [6], the “SI (CC50/EC50), CPE inhibition” value came out at 7.8; the 50% effective concentration (EC50) came out at 8.9 µM; the 90% effect concentration (EC90) is 20.9 µM. Moreover, the “Log P” value in [7] turned out to be 1.24.

For the molecule `CC1(C)C2CC[C@@]1(CS(=O)(=O)O)C(=O)C2.CC1(C)C2CC[C@@]1(CS(=O)(=O)O)C(=O)C2.CCN(CCO)CCCC(C)Nc1ccnc2cc(Cl)ccc12` (centres unmarked) [compound 6], the “Water Solubility” value in [2] was 2020 mg/mL. In addition, the lipophilicity (Log P) in data set [7] is given as −1.16.

`CCCCCCCCCCCCOS(=O)(=O)[O-].[Na+]` [8a, reference compound]: the cmc in [8] was 9600 µM. Moreover, the “Reference cmc (25 °C)” value in data set [9] was 8.0 × 10^−3 [72] M.
